The values that follow are results of earlier work, collected in patent US7060729B2, “Composition and method for treating skin” (priority 2002, dated 2006).

The structures appear in SMILES notation. Read-outs that look alike come from different tables or passages of the source.

For data set [1] the following is noted: topical application.
The conditions of data set [2]: in vivo.
The next data set concerns H. pylori. Particulars: Mayr-Kanhauser 2001.
The conditions of data set [3]: as stated in US 5,972,993.

With `O=C(O)CCCCCCCC(=O)O` [azelaic acid, 1,7-heptanedicarboxylic acid], in data set [1], the “inflammatory papule lesions and erythema” value was “significantly reduce”; the “pustules caused by rosacea” value is “not effective”; the telangiectasia entry is recorded as “did not produce any major improvement”. Further, in data set [2], the “erythema, dryness, and burning associated with rosacea” value is given as “effective”; the “physicians' rating of global improvement, azelaic acid versus metronidazole” value is “more favorably”; the “reducing the number of inflammatory lesions and associated signs and symptoms of rosacea” value was “equally effective”; the telangiectasia result is listed as “failed to effect”.

For `CC[C@H]1OC(=O)[C@H](C)[C@@H](O[C@H]2C[C@@](C)(OC)[C@@H](O)[C@H](C)O2)[C@H](C)[C@@H](O[C@@H]2O[C@H](C)C[C@H](N(C)C)[C@H]2O)[C@](C)(OC)C[C@@H](C)C(=O)[C@H](C)[C@@H](O)[C@]1(C)O` [clarithromycin], the “eliminating H. pylori” value in the data set with H. pylori was “effective”.

As to `Cc1ncc([N+](=O)[O-])n1CCO` [metronidazole, 2-methyl-5-nitro-1H-imidazole-1-ethanol], in data set [3], the “effect against skin redness, telangiectasia or flushing” value is “ineffective”; the “effect on papules and pustules of rosacea” value is reported as “have an effect”. The “eliminating H. pylori” value in the data set with H. pylori is given as “effective”. Also, in data set [2], the “erythema, dryness, and burning associated with rosacea” value is given as “effective”; the “reducing the number of inflammatory lesions and associated signs and symptoms of rosacea” value is given as “equally effective”; the telangiectasia result is given as “failed to effect”.
